Experimental data as given in US12564584B2, “Amorphous cabozantinib particles and uses thereof” (Flex Pharma, LLC, priority 2020, dated 2026).

What was measured:
[1] = Assay by HPLC (corrected for water content); assay type: physicochemical
Procedure: (§1) Total related substances was determined by HPLC using a Waters Acquity H-Class UPLC instrument utilizing a Waters Acquity BEH C18, 2.1×50 mm, 1.7 μm column. Sample solutions of each ASD were prepared by accurately weighing ASD powder into a volumetric flask, and diluted in 1:1:1 methanol:ethanol:water. The final concentration of the analyte (cabozantinib) in the sample was approximately 0.2 mg/ml.
(§2) Assay values and total related substances were determined for the ASDs after preparation (t=0) and at the designated stability timepoints using an appropriate HPLC method (as described in Example 1). The reported assay values have been corrected for water content (determined by Karl Fischer coulometric titration method).

[2] = Total related substances by HPLC; assay type: physicochemical
Procedure: as §1
Individual related substances were calculated as peak area percent. Total related substances is calculated as the sum of all detected individual related substances.
as §2

[3] = Water content by Karl Fischer coulometric titration; assay type: physicochemical; settings: after preparation
Procedure: Water content was determined by Karl Fischer coulometric titration method, using a Mettler Toledo C30S Karl Fischer with Stromboli Oven Sampler. Approximately 40-50 mg of ASD powder was weighed into a glass Stromboli sample vial and the vial was immediately sealed with a foil coated vial cover, and a rubber vial cap cover was placed on top of the sample vial. The vial was then placed onto instrument and analysis was conducted using nitrogen carrier gas. Instrument details and measurement conditions are specified in Table 4.

[4] = cited from earlier work
[5] = test system: MET, VEGFR-1, -2 and -3, AXL, RET, ROS1, TYRO3, MER, KIT, TRKB, FLT-3, and TIE-2; settings: FLT-3, TIE-2; cited from earlier work
[6] = cited from earlier work; remark: listed apart in the source

SMILES	Assay ([1]; 40° C./protected, 1 month) [%]	Assay ([1]; 40° C./protected, 2 months) [%]	Assay ([1]; 40° C./protected, 3 months) [%]	Assay ([1]; t = 0) [%]	Total Related Substances ([2]; 40° C./protected, 1 month) [%]	Total Related Substances ([2]; 40° C./protected, 2 months) [%]	Total Related Substances ([2]; 40° C./protected, 3 months) [%]	Total Related Substances (% Area) ([2]; after preparation)	Total Related Substances ([2]; t = 0) [%]	Water Content (% water) [3] [% water]	protein bound in human plasma [4] [%]	inhibition of tyrosine kinase activity [5]	solubility in aqueous media [6]
COc1cc2nccc(Oc3ccc(NC(=O)C4(C(=O)Nc5ccc(F)cc5)CC4)cc3)c2cc1OC.O=C(O)C[C@H](O)C(=O)O [Cabozantinib (free base), N-(4-(6,7-dimethoxyquinolin-4-yloxy)phenyl)-N′-(4-fluorophenyl)cyclopropane-1,1-dicarboxamide, (2S)-hydroxybutanedioate]	99.9	99.6	99.0	99.2	0.52	0.44	0.38	0.44	0.44	0.75	≥ 99.7	inhibits	–
COc1cc2nccc(Oc3ccc(NC(=O)C4(C(=O)Nc5ccc(F)cc5)CC4)cc3)c2cc1OC.O=C(O)C[C@H](O)C(=O)O [Cabozantinib (S)-malate salt]	–	–	–	–	–	–	–	–	–	–	–	–	practically insoluble
